Here are results for 7 compounds from BindingDB's records for doi:10.1016/j.bmcl.2006.06.087 (Fundp, 2006).

Broadly, the IC50 is the point on the concentration scale where inhibition reaches its midpoint. A low value points to inhibition by little substance.

This test concerns the target T1, Fatty-acid amide hydrolase 1 [30-579] (Rattus norvegicus, UniProt P97612).
T1 construct: 30-579
T1 sequence (P97612 whole entry): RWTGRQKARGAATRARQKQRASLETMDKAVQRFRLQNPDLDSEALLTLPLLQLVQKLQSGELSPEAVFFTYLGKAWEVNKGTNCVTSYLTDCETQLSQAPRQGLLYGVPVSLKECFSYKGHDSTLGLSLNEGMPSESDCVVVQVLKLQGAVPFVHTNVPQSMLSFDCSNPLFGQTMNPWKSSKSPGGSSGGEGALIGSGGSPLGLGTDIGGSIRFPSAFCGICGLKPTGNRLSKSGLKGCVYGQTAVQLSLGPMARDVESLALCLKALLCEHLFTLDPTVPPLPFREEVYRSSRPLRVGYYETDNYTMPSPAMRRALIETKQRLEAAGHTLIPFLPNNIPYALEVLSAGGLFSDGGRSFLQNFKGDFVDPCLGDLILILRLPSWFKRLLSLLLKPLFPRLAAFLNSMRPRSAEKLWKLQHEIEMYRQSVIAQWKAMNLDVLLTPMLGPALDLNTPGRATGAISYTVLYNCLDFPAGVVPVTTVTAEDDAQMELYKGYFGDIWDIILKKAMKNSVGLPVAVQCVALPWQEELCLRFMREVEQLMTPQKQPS
The test can be described thus: FAAH Inhibition Assay. Particulars: pH 9; 37 °C. The method, then: The effect of the test compounds on the enzymatic hydrolysis of [3H]anandamide was evaluated by using rat brain homogenate preparations. [3H]Ethanolamine produced from [3H]AEA hydrolysis was used to calculate FAAH activity and was measured by scintillation counting of the aqueous phase after extraction of the incubation mixture. Data are expressed as the concentration exerting a half maximal inhibition (IC50).

Consider `CCCCCCN1C(=O)NC(c2ccccc2)(c2ccccc2)C1=O` [3-hexyl-5,5-diphenylimidazolidine-2,4-dione], for which the 50% inhibitory concentration (IC50) stood at 9.55 µM. Turning to `CCCCCCN1C(=O)C(c2ccccc2)(c2ccccc2)NC1=S` [3-hexyl-5,5-diphenyl-2-sulfanylideneimidazolidin-4-one], half-maximal inhibition (IC50) required 4.47 µM. In the case of `O=C(CCCCCCc1ccccc1)c1nc2ncccc2o1` [7-phenyl-1-{pyrido[2,3-d][1,3]oxazol-2-yl}heptan-1-one], the IC50 amounted to 0.000316 µM. The compound `CCCCCCCCN1C(=O)C(c2ccccc2)(c2ccccc2)NC1=S` [3-octyl-5,5-diphenyl-2-sulfanylideneimidazolidin-4-one] came in with an IC50 of 3.02 µM. `CCCCCCCCN1C(=O)C(c2ccc(Br)cc2)(c2ccc(Br)cc2)NC1=S` [5,5-bis(4-bromophenyl)-3-octyl-2-sulfanylideneimidazolidin-4-one] yielded an IC50 of 589 µM.

As for `O=C1N(c2ccccc2)C(=S)NC1(c1ccccc1)c1ccccc1` [3,5,5-triphenyl-2-sulfanylideneimidazolidin-4-one], the IC50 amounted to 29.5 µM.

`C#CCCCCCCCCCNC(=O)Oc1cccc(-c2cccc(C(N)=O)c2)c1` [3-(3-carbamoylphenyl)phenyl N-(undec-10-yn-1-yl)carbamate] displayed an IC50 of 0.01 µM.
